Data on 34 molecules can be found in patent US20090069319A1, “IMIDAZOPYRIDINE ANALOGS AND THEIR USE AS AGONISTS OF THE WNT-BETA-CATENIN CELLULAR MESSAGING SYSTEM” (Wyeth, priority 2007, published 2009).

Series [1] can be described thus: Functional Dkk1-LRP5-TCF-Luciferase Assay in U2OS Cells (table columns: A=MAX FOLD Induction/DMSO CONTROL; B=fold induction @ 2.0 uM; C=fold induction @ 20.0 uM). Particulars: Homo sapiens; for fold induction at 2 µM / fold induction at 20 µM: U2OS; for fold induction at 2 µM: 2.0 uM compound; for fold induction at 20 µM: 20.0 uM compound; for EC50: U2OS cells, TCF-luciferase reporter. It is filed as cell-based, Human. The method in brief:
(§1)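 U2OS cells co-transfected with 16×TCF-TK-firefly luciferase, TK-Renilla control, Wnt3a and Dkk1, then frozen; thawed cells (~5,000/well, ~5% FBS, phenol red-free RPMI) incubated ~20 h at 37° C. with compound (0.25% DMSO). Firefly luminescence (Bright-Glo) normalized to DMSO mean as fold induction.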
In general terms: Reporter assays use an easily measured gene product as a stand-in for the process of interest.

Series [2] concerns canonical Wnt-β-catenin cellular messaging system (16xTCF-TK-FireFly-Luci reporter, Wnt3a and Dkk1 co-transfected U2OS cells). Described as above. It is filed as cell-based, Human. Particulars: maximum fold induction over DMSO control. The method in brief: as §1

What is called fold induction is the ratio of treated to control signal. As usually defined, the EC50 is the concentration giving half of the maximal effect. For `Cc1nc2c(-c3ccc4ccccc4c3)ccnc2n1[C@@H]1CCCNC1` [2-methyl-7-(2-naphthyl)-3-[(3R)-piperidin-3-yl]-3H-imidazo[4,5-b]pyridine], in series [1], the fold induction at 2 µM stood at 2.74, the fold induction at 20 µM was determined as 0.05 and a half-maximal response (EC50) required 2.68 µM. The “A = MAX FOLD Induction/DMSO CONTROL” value in series [2] amounted to 3.570.
With `COc1cc(-c2nc3cc(-c4ccc5ccccc5c4)cnc3n2C2CCNCC2)ccc1O` [2-methoxy-4-[6-(2-naphthyl)-3-piperidin-4-yl-3H-imidazo[4,5-b]pyridin-2-yl]phenol], in series [1], it took 0.486 µM to reach a half-maximal effect (EC50). Also, the “A = MAX FOLD Induction/DMSO CONTROL” value in series [2] is 2.110.
For the molecule `Cc1nc2c(-c3ccc4ccccc4c3)ccnc2n1C1CCNCC1` [2-methyl-7-(2-naphthyl)-3-piperidin-4-yl-3H-imidazo[4,5-b]pyridine], in series [1], the fold induction at 2 µM is 2.84 and the EC50 was found to be 0.895 µM. For the same molecule, the “A = MAX FOLD Induction/DMSO CONTROL” value in series [2] amounted to 3.215.
With `c1ccc2cc(-c3ccnc4c3ncn4[C@@H]3CCNC3)ccc2c1` [7-(2-naphthyl)-3-[(3R)-pyrrolidin-3-yl]-3H-imidazo[4,5-b]pyridine], in series [1], the fold induction at 2 µM is 2.06; the fold induction at 20 µM was 1.65; the midpoint of the response, the EC50, lay at 3.15 µM. In addition, the “A = MAX FOLD Induction/DMSO CONTROL” value in series [2] amounted to 4.260.
As to `Cn1ccnc1-c1nc2cc(-c3ccc4ccccc4c3)cnc2n1C1CCNCC1` [2-(1-methyl-1H-imidazol-2-yl)-6-(2-naphthyl)-3-piperidin-4-yl-3H-imidazo[4,5-b]pyridine], the “A = MAX FOLD Induction/DMSO CONTROL” value in series [2] was 2.720.
The same measure, in the same setting: under `Clc1ccc(-c2nc3cc(-c4ccc5ccccc5c4)cnc3n2C2CCNCC2)cc1` [2-(4-chlorophenyl)-6-(2-naphthyl)-3-piperidin-4-yl-3H-imidazo[4,5-b]pyridine] stands 1.160.
On the same count and under the same terms, with `Cn1cccc1-c1nc2cc(-c3ccc4ccccc4c3)cnc2n1C1CCNCC1` [2-(1-methyl-1H-pyrrol-2-yl)-6-(2-naphthyl)-3-piperidin-4-yl-3H-imidazo[4,5-b]pyridine] the figure was 2.470.
`O=C1OC2(c3ccc(O)cc3Oc3cc(O)ccc32)c2ccc(NC(=S)N3CCC(n4cnc5c(-c6ccc7ccccc7c6)ccnc54)CC3)cc21` [N-(3′,6′-dihydroxy-3-oxo-3H-spiro[2-benzofuran-1,9′-xanthen]-5-yl)-4-[7-(2-naphthyl)-3H-imidazo[4,5-b]pyridin-3-yl]piperidine-1-carbothioamide]: in series [1], the fold induction at 2 µM was 1.4, the fold induction at 20 µM came out at 6.49 and the EC50 came to 10.7 µM. Moreover, in series [2], the “A = MAX FOLD Induction/DMSO CONTROL” value is 12.158.
On to `Cc1nc[nH]c1-c1nc2cc(-c3ccc4ccccc4c3)cnc2n1C1CCNCC1` [2-(4-methyl-1H-imidazol-5-yl)-6-(2-naphthyl)-3-piperidin-4-yl-3H-imidazo[4,5-b]pyridine], for which, in series [2], the “A = MAX FOLD Induction/DMSO CONTROL” value was found to be 1.870.
Same read-out and setting: with `c1ccc2cc(-c3cnc4c(c3)nc(-c3ccc5c(c3)OCCO5)n4C3CCNCC3)ccc2c1` [2-(2,3-dihydro-1,4-benzodioxin-6-yl)-6-(2-naphthyl)-3-piperidin-4-yl-3H-imidazo[4,5-b]pyridine] the figure was 1.460.
As to `COc1ccc(-c2nc3c(-c4ccc5ccccc5c4)ccnc3n2C2CCNCC2)cc1` [2-(4-methoxyphenyl)-7-(2-naphthyl)-3-piperidin-4-yl-3H-imidazo[4,5-b]pyridine], in series [1], the fold induction at 2 µM was determined as 1.98. For the same molecule, in series [2], the “A = MAX FOLD Induction/DMSO CONTROL” value was determined as 1.320.
With `CC(=O)Nc1ccc(-c2nc3cc(-c4ccc5ccccc5c4)cnc3n2C2CCNCC2)cc1` [N-{4-[6-(2-naphthyl)-3-piperidin-4-yl-3H-imidazo[4,5-b]pyridin-2-yl]phenyl}acetamide], in series [2], the “A = MAX FOLD Induction/DMSO CONTROL” value is 1.460.
Still for that read-out and setting: under `Oc1ccc(-c2nc3cc(-c4ccc5ccccc5c4)cnc3n2C2CCNCC2)cc1` [4-[6-(2-naphthyl)-3-piperidin-4-yl-3H-imidazo[4,5-b]pyridin-2-yl]phenol] stands 1.710.
The same measure, in the same setting: under `COc1ccc(-c2nc3cc(-c4ccc5ccccc5c4)cnc3n2C2CCNCC2)cc1` [2-(4-methoxyphenyl)-6-(2-naphthyl)-3-piperidin-4-yl-3H-imidazo[4,5-b]pyridine] stands 1.350; under `C=Cc1cccc(-c2nc3cc(-c4ccc5ccccc5c4)cnc3n2C2CCNCC2)c1` [6-(2-naphthyl)-3-piperidin-4-yl-2-(3-vinylphenyl)-3H-imidazo[4,5-b]pyridine], 1.290; under `FC(F)(F)c1ccccc1-c1nc2cc(-c3ccc4ccccc4c3)cnc2n1C1CCNCC1` [6-(2-naphthyl)-3-piperidin-4-yl-2-[2-(trifluoromethyl)phenyl]-3H-imidazo[4,5-b]pyridine], 1.360.
Take `Cc1cc(-c2nc3c(-c4ccc5ccccc5c4)ccnc3n2C2CCNCC2)oc1C` [2-(4,5-dimethyl-2-furyl)-7-(2-naphthyl)-3-piperidin-4-yl-3H-imidazo[4,5-b]pyridine]: the fold induction at 2 µM in series [1] was found to be 1.54.
As to `CN(C)C(=O)N1CCC(n2c(=O)n(C)c3c(-c4ccc5ccccc5c4)ccnc32)CC1` [N,N-dimethyl-4-[1-methyl-7-(2-naphthyl)-2-oxo-1,2-dihydro-3H-imidazo[4,5-b]pyridin-3-yl]piperidine-1-carboxamide], in series [1], the fold induction at 2 µM worked out at 1.19 and the fold induction at 20 µM stood at 0.35.
The matching figures for `O=C(NC1CCCCC1)N1CCC(n2cnc3c(-c4ccc5ccccc5c4)ccnc32)CC1` [N-cyclohexyl-4-[7-(2-naphthyl)-3H-imidazo[4,5-b]pyridin-3-yl]piperidine-1-carboxamide]: 0.97 and 0.03.
On to `Oc1ccccc1-c1nc2cc(-c3ccc4ccccc4c3)cnc2n1C1CCNCC1` [2-[6-(2-naphthyl)-3-piperidin-4-yl-3H-imidazo[4,5-b]pyridin-2-yl]phenol], for which the “A = MAX FOLD Induction/DMSO CONTROL” value in series [2] is recorded as 1.380.
`Fc1ccc(-c2nc3c(-c4ccc5ccccc5c4)ccnc3n2C2CCNCC2)c(F)c1` [2-(2,4-difluorophenyl)-7-(2-naphthyl)-3-piperidin-4-yl-3H-imidazo[4,5-b]pyridine]: the fold induction at 2 µM in series [1] stood at 1.42.
Consider `Cc1ccc(CCn2cnc3c(-c4ccc5ccccc5c4)ccnc32)cc1` [3-[2-(4-methylphenyl)ethyl]-7-(2-naphthyl)-3H-imidazo[4,5-b]pyridine], for which, in series [1], the fold induction at 2 µM came to 0.76 and the fold induction at 20 µM worked out at 0.98.
The matching figures for `Clc1cncc(Cl)c1-c1nc2c(-c3ccc4ccccc4c3)ccnc2n1C1CCNCC1` [2-(3,5-dichloropyridin-4-yl)-7-(2-naphthyl)-3-piperidin-4-yl-3H-imidazo[4,5-b]pyridine]: 1.95 and 0.29.
`Brc1cccc(-c2nc3c(-c4ccc5ccccc5c4)ccnc3n2C2CCNCC2)c1` [2-(3-bromophenyl)-7-(2-naphthyl)-3-piperidin-4-yl-3H-imidazo[4,5-b]pyridine]: in series [1], the fold induction at 2 µM was found to be 1.52.
Still for that read-out and setting: with `Brc1ccc(-c2nc3c(-c4ccc5ccccc5c4)ccnc3n2C2CCNCC2)cc1` [2-(4-bromophenyl)-7-(2-naphthyl)-3-piperidin-4-yl-3H-imidazo[4,5-b]pyridine] the figure was 1.23.
The same measure, in the same setting: with `FC(F)(F)c1ccc(C(F)(F)F)c(-c2nc3c(-c4ccc5ccccc5c4)ccnc3n2C2CCNCC2)c1` [2-[2,5-bis(trifluoromethyl)phenyl]-7-(2-naphthyl)-3-piperidin-4-yl-3H-imidazo[4,5-b]pyridine] the figure was 1.45.
Still for that read-out and setting: under `c1ccc(-c2nc3cc(-c4ccc5ccccc5c4)cnc3n2C2CCNCC2)cc1` [6-(2-naphthyl)-2-phenyl-3-piperidin-4-yl-3H-imidazo[4,5-b]pyridine] stands 1.6; under `COc1ncccc1-c1nc2c(-c3ccc4ccccc4c3)ccnc2n1C1CCNCC1` [2-(2-methoxypyridin-3-yl)-7-(2-naphthyl)-3-piperidin-4-yl-3H-imidazo[4,5-b]pyridine], 1.5.
`c1ccc2cc(-c3ccc4ncn(C5CCNCC5)c4n3)ccc2c1` [5-(2-naphthyl)-3-piperidin-4-yl-3H-imidazo[4,5-b]pyridine]: in series [1], the fold induction at 2 µM was 0.32.
Take `COc1ccccc1-c1nc2cc(-c3ccc4ccccc4c3)cnc2n1C1CCNCC1` [2-(2-methoxyphenyl)-6-(2-naphthyl)-3-piperidin-4-yl-3H-imidazo[4,5-b]pyridine]: in series [1], the fold induction at 2 µM is 1.37 and the fold induction at 20 µM was found to be 0.01.
Turning to `Fc1ccc(-c2nc3cc(-c4ccc5ccccc5c4)cnc3n2C2CCNCC2)c(F)c1` [2-(2,4-difluorophenyl)-6-(2-naphthyl)-3-piperidin-4-yl-3H-imidazo[4,5-b]pyridine], in series [1], the fold induction at 2 µM is 1.22.
As for `CC(C)NC(=O)N1CCC(n2cnc3c(-c4ccc5ccccc5c4)ccnc32)CC1` [N-isopropyl-4-[7-(2-naphthyl)-3H-imidazo[4,5-b]pyridin-3-yl]piperidine-1-carboxamide], in series [1], the fold induction at 2 µM was 1.2 and the fold induction at 20 µM was determined as 0.84.
Turning to `Oc1cccc(-c2nc3cc(-c4ccc5ccccc5c4)cnc3n2C2CCNCC2)c1O` [3-[6-(2-naphthyl)-3-piperidin-4-yl-3H-imidazo[4,5-b]pyridin-2-yl]benzene-1,2-diol], the “A = MAX FOLD Induction/DMSO CONTROL” value in series [2] is given as 1.430.
Turning to `c1ccc2cc(-c3cnc4c(c3)nc(-c3cc5ccccc5s3)n4C3CCNCC3)ccc2c1` [2-(1-benzothien-2-yl)-6-(2-naphthyl)-3-piperidin-4-yl-3H-imidazo[4,5-b]pyridine], the fold induction at 2 µM in series [1] stood at 0.92.
